Molecular target: T1, soluble guanylate cyclase (sGC) (Homo sapiens, UniProt Q02108+Q02153)
T1 construct: endogenously expressing soluble guanylate cyclase (sGC); endogenous in cells; host or cells: HEK293
T1 sequence (Q02153 1-619): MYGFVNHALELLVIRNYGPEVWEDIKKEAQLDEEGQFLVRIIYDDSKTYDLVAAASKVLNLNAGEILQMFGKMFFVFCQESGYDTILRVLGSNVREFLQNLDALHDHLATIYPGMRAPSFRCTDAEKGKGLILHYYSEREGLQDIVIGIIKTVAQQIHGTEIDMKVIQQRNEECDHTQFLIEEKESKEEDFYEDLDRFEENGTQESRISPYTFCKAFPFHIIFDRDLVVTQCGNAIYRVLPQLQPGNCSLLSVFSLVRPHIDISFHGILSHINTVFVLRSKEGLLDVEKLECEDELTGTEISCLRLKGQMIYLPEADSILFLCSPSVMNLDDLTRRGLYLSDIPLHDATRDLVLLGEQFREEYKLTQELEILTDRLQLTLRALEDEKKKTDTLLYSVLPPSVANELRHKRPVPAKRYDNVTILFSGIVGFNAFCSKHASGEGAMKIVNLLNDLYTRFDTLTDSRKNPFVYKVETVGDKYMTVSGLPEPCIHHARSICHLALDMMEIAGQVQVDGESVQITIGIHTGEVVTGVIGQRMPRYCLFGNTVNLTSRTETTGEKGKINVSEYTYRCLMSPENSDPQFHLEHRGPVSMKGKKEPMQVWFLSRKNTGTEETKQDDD
T1 sequence (Q02108 1-690): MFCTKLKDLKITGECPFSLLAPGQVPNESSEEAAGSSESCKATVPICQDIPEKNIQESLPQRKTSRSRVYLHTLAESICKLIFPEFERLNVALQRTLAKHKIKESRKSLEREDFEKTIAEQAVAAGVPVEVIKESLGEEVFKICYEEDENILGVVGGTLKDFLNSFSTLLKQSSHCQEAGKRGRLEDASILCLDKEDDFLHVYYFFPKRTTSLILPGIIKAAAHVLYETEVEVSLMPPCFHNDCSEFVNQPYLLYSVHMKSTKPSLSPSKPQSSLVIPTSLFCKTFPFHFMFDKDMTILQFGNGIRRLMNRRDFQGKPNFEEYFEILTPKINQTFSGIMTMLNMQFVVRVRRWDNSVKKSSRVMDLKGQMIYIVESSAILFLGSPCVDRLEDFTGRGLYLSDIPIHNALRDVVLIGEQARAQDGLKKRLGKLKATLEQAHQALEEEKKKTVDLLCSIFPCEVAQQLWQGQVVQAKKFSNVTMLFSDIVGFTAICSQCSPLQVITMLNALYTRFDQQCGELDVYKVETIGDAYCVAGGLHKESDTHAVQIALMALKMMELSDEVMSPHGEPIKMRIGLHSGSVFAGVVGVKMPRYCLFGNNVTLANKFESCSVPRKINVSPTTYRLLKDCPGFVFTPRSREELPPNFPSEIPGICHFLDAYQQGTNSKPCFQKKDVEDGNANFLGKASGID
Test: sGC-HEK-cGMP assay with SNP incubation (LC/MS read-out)
Type: cell-based
Settings: 10 μM SNP
Method: (Assay Run with SNP Incubation)
Human embryonic kidney cells (HEK293), endogenously expressing soluble guanylate cyclase (sGC), were used to evaluate the activity of test compounds. Compounds stimulating the sGC receptor should cause an increase in the intracellular concentration of cGMP. HEK 293 cells were seeded in Dulbecco's Modification of Eagle's Medium supplemented with fetal bovine serum (10% final) and L-glutamine (2 mM final) in a 200 μL volume at a density of 1×10^5 cells/well in a poly-D-lysine coated 96 well flat bottom plate and grown overnight at 37° C. Medium was aspirated and cells were washed with 1× Hank's Buffered Saline Salt Solution (200 μL). Cells were then incubated for 15 minutes at 37° C. with 200 μL of a 0.5 mM 3-isobutyl-1-methylxanthine (IBMX) solution. Test article and sodium nitroprusside solutions (x μM concentration for test article solution and 10 μM concentration for SNP solution; wherein x is one of the following concentrations);
were then added to the assay mixture (2 μL each) and the resulting mixture incubated at 37° C. for 10 minutes. After the 10 minute incubation, the assay mixture was aspirated and 0.1M HCl (200 μL) was added to the cells. The plate was incubated at 4° C. for 30 minutes in the 0.1M HCl to stop the reaction and lyse the cells. The plates were then centrifuged at 1,200 g for 5 minutes at room temperature. Supernatants were collected and transferred to a new flat bottom 96 well plate for analysis by HPLC-MS. Vehicle controls were carried out using DMSO (1%) solutions. A known sGC stimulator, BAY 41-2272, was used as the positive control. Samples were diluted with an equal volume of 1 M Ammonium Acetate (pH 7) to neutralize samples for better chromatography. A 2×cGMP standard solution was prepared in 0.1 M HCl and then diluted with an equal volume of 1 M Ammonium Acetate, with the following final concentrations in nM: 1024, 512, 256, 128, 64, 32, 16, 8, 4, 2, 1. cGMP concentrations in the test plates were determined from each sample using the LC/MS conditions shown in Table 2 below and the calculated cGMP standard curve. EC50 values were calculated from concentration-response curves generated with GraphPad Prism Software.
The biological activities of some of the compounds of Formula I or Formula Ib determined with the sGC-HEK assay with SNP incubation are summarized in Tables 3A and 3B.

Nc1ccnc(-n2cc(-c3ncco3)c(Cc3ccccc3F)n2)n1 [Compound I-2] gave an Emax at 10 µM (10 μM compound, 100% = BAY 41-2272 at 10 μM with 100 μM SNP, read-out: HEK assay (Percent Emax at 10 μM)) of 80 to 100%, an Emax at 30 µM (30 μM compound, 100% = BAY 41-2272 at 10 μM with 100 μM SNP, read-out: HEK assay (Percent Emax at 30 μM)) of 80 to 100% and an EC50 (top of curve fitted to 100%, read-out: HEK assay EC50-constrained) of 1 to 5 µM.

Reference: US9487508B2, “SGC stimulators” (IRONWOOD PHARMACEUTICALS, INC., priority 2012, dated 2016)
